Source: US20210254056A1, “IDENTIFICATION AND TARGETED MODULATION OF GENE SIGNALING NETWORKS” (CAMP4 THERAPEUTICS CORPORATION, priority 2017, published 2021)

System: hepatocytes
Experiment: RNA-seq of hepatocytes treated with Phase III failure compounds
Conditions: hepatocytes
Description: RNA-seq was performed to determine the effects of the compounds on hepatocytes.
Significance was determined by the criteria of FPKM≥0.5, a log 2(fold-change)≥1, and a […].

CCC(CC)[C@H](NC(C)=O)[C@@H]1[C@H](O)[C@@H](C(=O)O)C[C@H]1NC(=N)N.O.O.O [peramivir (trihydrate), peramivir]
RNA-seq results: BCKDK expression (gene BCKDK): −0.14
RNA-seq results: BCO1 expression (gene BCO1): −0.07
RNA-seq results: BCR expression (gene BCR): −0.02
RNA-seq results: BLNK expression (gene BLNK): −0.02
RNA-seq results: BLOC1S3 expression (gene BLOC1S3): 0.01
RNA-seq results: BMPR1A expression (gene BMPR1A): −0.14
RNA-seq results: BRAF expression (gene BRAF): −0.13
RNA-seq results: BSCL2 expression (gene BSCL2): −1.57
RNA-seq results: BTD expression (gene BTD): −0.14
RNA-seq results: C4A expression (gene C4A): 0.79
RNA-seq results: C9 expression (gene C9): −0.57
RNA-seq results: C10orf10 expression (gene C10orf10): 0.08
RNA-seq results: C10orf11 expression (gene C10orf11): −0.18
RNA-seq results: C15orf41 expression (gene C15orf41): −0.25
RNA-seq results: CA2 expression (gene CA2): −0.12
RNA-seq results: CA5A expression (gene CA5A): 0.03
RNA-seq results: CA12 expression (gene CA12): −0.29
RNA-seq results: CAV1 expression (gene CAV1): −0.36
RNA-seq results: CCND1 expression (gene CCND1): −0.01
RNA-seq results: CD46 expression (gene CD46): −0.29
RNA-seq results: CD81 expression (gene CD81): −0.08
RNA-seq results: CD320 expression (gene CD320): −0.01
RNA-seq results: CDAN1 expression (gene CDAN1): 0.23
RNA-seq results: CDH1 expression (gene CDH1): 0.05
RNA-seq results: CEP19 expression (gene CEP19): −0.09
RNA-seq results: CEP83 expression (gene CEP83): −0.20
RNA-seq results: CEP164 expression (gene CEP164): 0.39
RNA-seq results: CEP290 expression (gene CEP290): −0.30
RNA-seq results: CFB expression (gene CFB): −0.13
RNA-seq results: CFHR2 expression (gene CFHR2): −0.38
RNA-seq results: CHRM3 expression (gene CHRM3): −0.12
RNA-seq results: CIDEC expression (gene CIDEC): −0.45
RNA-seq results, CLDN1 expression (gene CLDN1): −0.36
RNA-seq results, COG1 expression (gene COG1): −0.10
RNA-seq results, COG5 expression (gene COG5): −0.36
RNA-seq results: COG5 expression (gene COG5): −0.22
RNA-seq results, COG6 expression (gene COG6): −0.54
RNA-seq results: COG6 expression (gene COG6): −0.08
RNA-seq results, COL1A1 expression (gene COL1A1): 0.33
RNA-seq results: COL1A1 expression (gene COL1A1): 0.09
RNA-seq results, COX6A1 expression (gene COX6A1): 0.39
RNA-seq results: COX6A1 expression (gene COX6A1): −0.01
RNA-seq results, CP expression (gene CP): −0.09
RNA-seq results: CP expression (gene CP): −0.27
RNA-seq results, CPS1 expression (gene CPS1): 0.01
RNA-seq results: CPS1 expression (gene CPS1): −0.63
RNA-seq results, CPT1A expression (gene CPT1A): −0.10
RNA-seq results: CPT1A expression (gene CPT1A): 0.13
RNA-seq results, CPT2 expression (gene CPT2): −0.19
RNA-seq results: CPT2 expression (gene CPT2): 0.05
RNA-seq results, CROT expression (gene CROT): −0.25
RNA-seq results: CROT expression (gene CROT): −0.4
RNA-seq results, CSPP1 expression (gene CSPP1): −0.06
RNA-seq results: CSPP1 expression (gene CSPP1): −0.05
RNA-seq results, CTC1 expression (gene CTC1): 0.10
RNA-seq results: CTC1 expression (gene CTC1): 0.2
RNA-seq results, CTDSP2 expression (gene CTDSP2): 0.00
RNA-seq results: CTDSP2 expression (gene CTDSP2): −0.07
RNA-seq results, CTH expression (gene CTH): 0.06
RNA-seq results: CTH expression (gene CTH): 0.6
RNA-seq results, CTNS expression (gene CTNS): −0.25
RNA-seq results: CTNS expression (gene CTNS): 0.65
RNA-seq results, CTSF expression (gene CTSF): 0.21
RNA-seq results: CTSF expression (gene CTSF): 0.3
RNA-seq results, CTSK expression (gene CTSK): 0.28
RNA-seq results: CTSK expression (gene CTSK): 0.04
RNA-seq results, CYB5A expression (gene CYB5A): 0.01
RNA-seq results: CYB5A expression (gene CYB5A): 0.34
RNA-seq results, CYB5R3 expression (gene CYB5R3): 0.00
RNA-seq results: CYB5R3 expression (gene CYB5R3): 0.13
RNA-seq results, CYP2B6 expression (gene CYP2B6): 0.07
RNA-seq results: CYP2B6 expression (gene CYP2B6): 0.12
RNA-seq results, CYP2C19 expression (gene CYP2C19): 0.25
RNA-seq results: CYP2C19 expression (gene CYP2C19): −0.31
RNA-seq results, CYP2D6 expression (gene CYP2D6): 0.24
RNA-seq results: CYP2D6 expression (gene CYP2D6): 0.22
RNA-seq results, CYP3A4 expression (gene CYP3A4): −0.53
RNA-seq results: CYP3A4 expression (gene CYP3A4): 0.77
RNA-seq results, CYP7B1 expression (gene CYP7B1): −0.16
RNA-seq results: CYP7B1 expression (gene CYP7B1): −0.34
RNA-seq results, CYP27A1 expression (gene CYP27A1): −0.21
RNA-seq results: CYP27A1 expression (gene CYP27A1): 0.28
RNA-seq results, CYP39A1 expression (gene CYP39A1): −0.20
RNA-seq results: CYP39A1 expression (gene CYP39A1): −0.11
RNA-seq results, DAO expression (gene DAO): 0.00
RNA-seq results: DAO expression (gene DAO): 0.13
RNA-seq results, DBT expression (gene DBT): −0.24
RNA-seq results: DBT expression (gene DBT): −0.32
RNA-seq results, DCDC2 expression (gene DCDC2): −0.04
RNA-seq results: DCDC2 expression (gene DCDC2): −0.6
RNA-seq results, DCXR expression (gene DCXR): −0.20
RNA-seq results: DCXR expression (gene DCXR): 0.16
RNA-seq results, DDC expression (gene DDC): −0.41
RNA-seq results: DDC expression (gene DDC): −0.25
RNA-seq results, DDO expression (gene DDO): 0.12
RNA-seq results: DDO expression (gene DDO): 0.12
RNA-seq results, DENR expression (gene DENR): −0.36
RNA-seq results: DENR expression (gene DENR): −0.13
RNA-seq results, DHCR7 expression (gene DHCR7): 0.04
RNA-seq results: DHCR7 expression (gene DHCR7): 0.32
RNA-seq results, DHCR24 expression (gene DHCR24): −0.16
RNA-seq results: DHCR24 expression (gene DHCR24): −0.14
RNA-seq results, DHODH expression (gene DHODH): 0.27
RNA-seq results: DHODH expression (gene DHODH): 0.22
RNA-seq results, DIS3L2 expression (gene DIS3L2): −0.14
RNA-seq results: DIS3L2 expression (gene DIS3L2): −0.14
RNA-seq results, DKC1 expression (gene DKC1): −0.11
RNA-seq results: DKC1 expression (gene DKC1): −0.05
RNA-seq results, DLAT expression (gene DLAT): −0.15
RNA-seq results: DLAT expression (gene DLAT): −0.21
RNA-seq results, DLD expression (gene DLD): −0.35
RNA-seq results: DLD expression (gene DLD): −0.3
RNA-seq results, DMGDH expression (gene DMGDH): −0.11
RNA-seq results: DMGDH expression (gene DMGDH): −0.15
RNA-seq results, DNAH5 expression (gene DNAH5): −0.05
RNA-seq results: DNAH5 expression (gene DNAH5): −0.1
RNA-seq results, DNM1L expression (gene DNM1L): −0.28
RNA-seq results: DNM1L expression (gene DNM1L): −0.12
RNA-seq results, DOLK expression (gene DOLK): 0.09
